{"source": "paper PMC4168161", "about": "“A novel approach for the discovery of chemically diverse anti-malarial compounds targeting the Plasmodium falciparum Coenzyme A synthesis pathway” (Malaria Journal, 2014)", "key": {"[1]": {"test_system": "Plasmodium falciparum strain 3D7", "experiment": "Plasmodium falciparum growth inhibition imaging assay", "format": "cell-based", "details": "for SI (selectivity index): HEK293 IC50 value divided by P. falciparum IC50 value; for IC50: P. falciparum 3D7, 72 hr, n = 3", "protocol": "In vitro parasite culture was maintained in RPMI with 10 mM Hepes (Life Technologies), 50 μg/ml hypoxanthine (Sigma) and 5 mg/ml AlbuMAX II® (Life Technologies). Human O + erythrocytes were obtained from the Australian Red Cross Blood Service (Agreement No: 13-04QLD-09). The parasites were maintained at 2-8% parasitaemia (% P) at 5% haematocrit (% H), incubated at 37°C, 5% CO2, 5%O2 and 90% N2 and 95% humidity. The well-established P. falciparum imaging assay was modified to allow assessment of chemical rescue with CoA. In brief, sorbitol (5% w/v) synchronization was performed twice, approximately 8 hr apart, on each synchronization day for two consecutive ring cycles, i.e., on day 1 and 3 of assay preparation. On day 2 the culture was split to approximately 2% trophozoite parasitaemia. On day 4 the culture was split to 1-1.5% trophozoite parasitaemia, which yielded approximately 8% ring parasitaemia after 48 hr (on day 5, i.e., the day of the assay set-up). Compound stocks (10 mM in 100% DMSO) were diluted 1:25 in sterile water, less than 24 hr prior to use. An additional 1:10 dilution was performed, resulting in a 1:250 overall compound dilution and a final DMSO concentration of 0.4%. For initial screening, compounds were tested at a final 2 μM concentration. For dose response curves of the active compounds, a semi-logarithmic serial dilution (containing three data points per log) was prepared at 40 μM top concentration for test compounds and 2 μM for the positive control, artemisinin. The known P. falciparum CoA synthesis inhibitor, panthenol, was prepared as a 100 mM solution in 4% DMSO. The final concentration of the dose response curve of panthenol started at 10 mM and was serially diluted down to 100 nM. CoA was dissolved in water. The final CoA concentration for optimal rescue results was determined for each CoA batch and ranged between 0.8-2 mM. Five μl of the 1:25 diluted test compound or control solutions were added to 384-well CellCarrier imaging plates (PerkinElmer). For the chemical rescue, 5 μl of CoA solution were added to ‘rescue’ wells and 5 μl water to all control and reference wells, respectively. Parasite culture was added to a final concentration of 1% parasitaemia (% P) and 0.3% haematocrit (% H). Plates were incubated for 72 hr at 37°C, 5% CO2 and 95% humidity. On day 8 the permeabilization and nuclear staining buffer was prepared in PBS containing 10 μg/ml saponin, 0.01% triton X, 5 mM EDTA (all: Sigma) and 0.5 μg/ml 4′,6-diamidino-2-phenylindole (DAPI; Life Technologies). The plates were left for at least 4 hr (typically overnight), before confocal imaging on an Opera™ High Content Screening Platform (PerkinElmer) at 405 nm excitation with a 20x water objective. Automated primary image analysis was performed concurrent with the imaging process, utilizing an Acapella® software (PerkinElmer) script to determine the number of parasites based on object size and fluorescence intensity. Determination of the % growth compared to controls (2 μM artemisinin as positive and 0.4% DMSO as negative control) was performed in Microsoft® Excel 2010. Statistical analysis including IC50 determination and graphical output was performed in GraphPad Prism® 5 using non-linear regression variable slope curve fitting."}, "[2]": {"test_system": "3D7 parasites", "experiment": "Time course for parasite stage affected and phenotype (Giemsa smears)", "format": "cell-based, Plasmodium falciparum", "details": "for parasite stage of action / phenotype: compound at IC80, 0-48 hr", "protocol": "The principle of the P. falciparum imaging assay described above was used, with the exception that the parasite synchronization was adjusted to yield parasites synchronized to a 2-hr window as established in-house. In brief, sorbitol synchronization was performed twice (approximately 8 hr apart) on day 1 and only once on day 3 (around 10.00). Schizonts observed on day 4 were left to mature and when rings were first observed, the mature schizonts were isolated using a MACS® column (Miltenyi Biotec). The purified schizonts were incubated for 2 hr at 37°C, 5% CO2 and 5% O2 and 90% N2 on a shaker. The obtained 0-2 hr old ring stage parasites were isolated by removing the remaining schizonts by flow through a MACS® column and the highly synchronized rings obtained were seeded in the assay plates with the compounds as described above. At each time point, one whole columns (16 wells) of identically treated parasites, i.e., 0.4% DMSO as control, compound at its individual IC80 or compound at IC80 plus CoA, were pooled and centrifuged. A smear was made from the pellet and stained with Giemsa (Sigma) for assessment the phenotype of treated parasites with or without supplementation of 0.8 mM CoA in comparison to DMSO controls.\nThe parasite viability assay used above is an endpoint assay that spans two development cycles of the parasite. To investigate the parasite stage of action of the identified compounds and the phenotype of compound treated parasites, a light microscopy-based time course study was undertaken. The seven compounds of submicromolar activity were added at time point t0 at their respective IC80 concentrations, with and without the addition of 0.8 mM CoA. The 3D7 parasites used in this experiment were age synchronized to within a 2-hr window of the ring stage. Due to assay preparation time, the parasite age at t0 therefore ranged from 0.5 hr to 2.5 hr.\nAt t0, t18, t24 and t48 parasite cultures for all conditions were centrifuged and Giemsa-stained blood smears were prepared. The 18-hr treatment time point was specifically chosen, since it was expected to see the transition between ring and trophozoite stage in control cultures around this time point (parasite age range 18.5 hr to […]). Therefore any delay in the transition from ring to trophozoite stage under treatment with the compounds was expected to be discernible at this time point."}, "[3]": {"test_system": "HEK293 cells", "experiment": "HEK293 viability assay (resazurin)", "format": "cell-based, human", "details": "HEK293, 72 hr, top concentration 40 μM, n = 3", "protocol": "To assess cytotoxicity of compounds in dose response, a resazurin-based assay was utilized to determine cell viability. In brief, HEK293 cells were grown in DMEM medium (Life Technologies) containing 10% foetal calf serum (FCS; Gibco). Cells were trypsinized, counted and seeded at 2,000 cells per well in 45 μl media into TC-treated 384-well plates (Falcon) and left to adhere overnight at 37°C, 5% CO2 and 95% humidity.\nTest compounds were prepared as described above, to give a top final test concentration of 40 μM, 0.4% DMSO. Plates were incubated for 72 hr at 37°C, 5% CO2 and 95% humidity, then the media was removed and replaced by 35 μl of 44 μM resazurin in DMEM without FCS. The plates were incubated for another 4-6 hr at 37°C, 5% CO2 and 95% humidity before reading on an EnVision® Plate Reader (PerkinElmer) using fluorescence excitation/emission settings of 530 nm/595 nm. Determination of the% growth compared to controls (40 μM puromycin as positive and 0.4% DMSO as negative control) was performed in Microsoft® Excel 2010. Statistical analysis including IC50 determination and graphical output was performed in GraphPad Prism® 5 using nonlinear regression variable slope curve fitting."}, "[4]": {"details": "compound at IC80 plus 0.8 mM CoA"}, "[5]": {"details": "compound at IC80 plus 0.8 mM CoA, t24"}, "[6]": {"details": "compound at IC80 plus 0.8 mM CoA, t48"}}, "data": [{"smiles": "Cc1csc(Sc2ncnc3sccc23)n1", "note": "[Amb180780]", "values": [{"measurement": "SI (selectivity index)", "setting": "[1]", "value": "~ 333"}, {"measurement": "IC50", "setting": "[1]", "value": 0.12, "unit": "µM"}, {"measurement": "compound-treated parasites able to progress from the ring to the trophozoite stage", "setting": "[2]; compound at IC80", "value": "Less than 13%"}, {"measurement": "parasite stage of action / phenotype", "setting": "[2]", "value": "arrest parasite development at the ring stage"}, {"measurement": "dead or dying parasites (relative parasitaemia)", "setting": "[2]; compound at IC80, t48", "value": 28.6, "unit": "%"}, {"measurement": "CoA rescue of stage progression / phenotype", "setting": "[2]; [4]", "value": "rescued very well by CoA addition"}, {"measurement": "dead or dying parasites (relative parasitaemia)", "setting": "[2]; [5]", "value": 20, "unit": "%"}, {"measurement": "dead or dying parasites (relative parasitaemia)", "setting": "[2]; [6]", "value": "control levels"}, {"measurement": "IC50", "setting": "[3]", "value": "~40", "unit": "µM"}]}, {"smiles": "CC(=O)c1ccc2c3c(onc13)-c1ccccc1C2=O", "note": "[Amb3377585]", "values": [{"measurement": "SI (selectivity index)", "setting": "[1]", "value": 18}, {"measurement": "IC50", "setting": "[1]", "value": 0.15, "unit": "µM"}, {"measurement": "parasite stage of action / phenotype", "setting": "[2]", "value": "killing both the ring and the trophozoite stage of the parasite from approximately t24"}, {"measurement": "death rate of parasites (relative parasitaemia)", "setting": "[2]; compound at IC80, from t24 onwards", "value": 49, "unit": "%"}, {"measurement": "abnormal trophozoites as share of all counted living trophozoites", "setting": "[2]; compound at IC80, t48", "value": 51, "unit": "%"}, {"measurement": "relative parasitaemia of trophozoites showing abnormal morphology", "setting": "[2]; compound at IC80, t48", "value": 30.5, "unit": "%"}, {"measurement": "CoA rescue of stage progression / phenotype", "setting": "[2]; [4]", "value": "very good rescue of parasite development, death rates and morphology"}, {"measurement": "IC50", "setting": "[3]", "value": 2.75, "unit": "µM"}]}, {"smiles": "CCOc1ccc(Nc2c3ccccc3nc3ccccc23)cc1.Cl", "note": "[MMV000304/Amb636705]", "values": [{"measurement": "SI (selectivity index)", "setting": "[1]", "value": 0.8}, {"measurement": "SI (selectivity index)", "setting": "[1]; listed as MMV000304", "value": "no parasite specificity"}, {"measurement": "IC50", "setting": "[1]", "value": 1.21, "unit": "µM"}, {"measurement": "IC50", "setting": "[3]", "value": 1, "unit": "µM"}]}, {"smiles": "CCc1ccc(Nc2cc(C)c3ccc(O)cc3n2)cc1.Cl", "note": "[MMV000570/C614-0191]", "values": [{"measurement": "SI (selectivity index)", "setting": "[1]", "value": "~ 54"}, {"measurement": "IC50", "setting": "[1]", "value": 0.74, "unit": "µM"}, {"measurement": "parasite stage of action / phenotype", "setting": "[2]", "value": "affects both the development of the ring and trophozoite stage of the parasite"}, {"measurement": "dead or dying parasites (relative parasitaemia)", "setting": "[2]; compound at IC80, t24", "value": "around 28%"}, {"measurement": "dead or dying parasites (relative parasitaemia)", "setting": "[2]; compound at IC80, t48", "value": "~20", "unit": "%"}, {"measurement": "CoA rescue of stage progression / phenotype", "setting": "[2]; [4]", "value": "Addition of CoA did not alleviate this developmental delay"}, {"measurement": "dead or dying parasites (relative parasitaemia)", "setting": "[2]; [5]", "value": 13.4, "unit": "%"}, {"measurement": "dead or dying parasites (relative parasitaemia)", "setting": "[2]; [6]", "value": 8.3, "unit": "%"}, {"measurement": "IC50", "setting": "[3]", "value": "~40", "unit": "µM"}]}, {"smiles": "COc1ccc2c(=O)cc(C(Cl)(Cl)Cl)oc2c1", "note": "[MMV665820/5534045]", "values": [{"measurement": "SI (selectivity index)", "setting": "[1]", "value": 6.2}, {"measurement": "IC50", "setting": "[1]", "value": 0.58, "unit": "µM"}, {"measurement": "parasite stage of action / phenotype", "setting": "[2]", "value": "main compound action is on the trophozoite stage"}, {"measurement": "relative parasitaemia of trophozoites showing abnormal morphology", "setting": "[2]; compound at IC80, t24", "value": 42.9, "unit": "%"}, {"measurement": "relative parasitaemia of dead or dying trophozoites", "setting": "[2]; compound at IC80, t48", "value": 13.8, "unit": "%"}, {"measurement": "relative parasitaemia of trophozoites showing abnormal morphology", "setting": "[2]; compound at IC80, t48", "value": 26.6, "unit": "%"}, {"measurement": "CoA rescue of stage progression / phenotype", "setting": "[2]; [4]", "value": "CoA addition effectively rescued both parasite development and morphology"}, {"measurement": "IC50", "setting": "[3]", "value": 3.6, "unit": "µM"}]}, {"smiles": "CC(C)=NOC(=O)c1c(C)noc1-c1snnc1C", "note": "[SPB03400]", "values": [{"measurement": "IC50", "setting": "[1]", "value": 0.45, "unit": "µM"}, {"measurement": "parasite stage of action / phenotype", "setting": "[2]", "value": "No change in the relative parasitaemia of rings or trophozoites compared to the untreated controls"}, {"measurement": "ring form parasites showing abnormal morphologies", "setting": "[2]; compound at IC80, t48", "value": "around 50%"}, {"measurement": "IC50", "setting": "[3]", "value": "> 40", "unit": "µM"}]}, {"smiles": "CC1=CC(=O)C(C(C)C)=C/C1=N/OS(=O)(=O)c1ccccc1", "note": "[STK 740987]", "values": [{"measurement": "SI (selectivity index)", "setting": "[1]", "value": "> 105"}, {"measurement": "IC50", "setting": "[1]", "value": 0.38, "unit": "µM"}, {"measurement": "parasite stage of action / phenotype", "setting": "[2]", "value": "no change in the stage composition of rings and trophozoites compared to the controls"}, {"measurement": "dead or dying parasites (relative parasitaemia)", "setting": "[2]; compound at IC80, t24", "value": "around 16%"}, {"measurement": "IC50", "setting": "[3]", "value": "> 40", "unit": "µM"}]}]}
